The OligoGym collection
“And” between values parts separate entries of the source, which are not always exact repeats. Equal values may be shown once. After the bases stand the sugars from the 5' end (letter, count) and the backbone: PS all phosphorothioate, else s phosphorothioate and o phosphodiester by linkage. Methylation of C is not given here. e = 2'-O-(2-methoxyethyl) (MOE); k = constrained ethyl (cEt); d = 2'-deoxy (DNA)

Target: IRF4
Conditions: ASO

AAGAGGTGCGAGTACC (sugars k3 d10 k3, PS)
target mRNA inhibition (SK-MEL-28, 4 µM): 34%

AAGCAACACGGGAATT (sugars k3 d10 k3, PS)
target mRNA inhibition (SK-MEL-28, 4 µM): 22%

AAGCAGTGATGTCAGG (sugars kddddddddddkekek, PS)
target mRNA inhibition (MM.1R, 1 µM): 28% and 39%

AAGCATTTTATCATCC (sugars k3 d10 k3, PS)
target mRNA inhibition (MM.1R, 1 µM): 25%

AAGCATTTTATCATCC (sugars kkdddddddddekeke, PS)
target mRNA inhibition (MM.1R, 1 µM): 25%

AAGCATTTTATCATCC (sugars kkdddddddddkekek, PS)
target mRNA inhibition (MM.1R, 1 µM): 18%

AAGCCGTTCCTTTTCA (sugars k3 d10 k3, PS)
target mRNA inhibition (SK-MEL-28, 4 µM): 29%

AAGCTAAACTCCTAAG (sugars k3 d10 k3, PS)
target mRNA inhibition (SK-MEL-28, 4 µM): 15%

AAGCTTGATAAAGGCT (sugars kkddddddddddkeke, PS)
target mRNA inhibition (MM.1R, 1 µM): -18%

AAGCTTGATAAAGGCT (sugars kkkdddddddddkeke, PS)
target mRNA inhibition (MM.1R, 1 µM): -18%

AAGGAGGCGGGCCTTG (sugars k3 d10 k3, PS)
target mRNA inhibition (SK-MEL-28, 4 µM): 2%

AAGGATGGGACCGCCC (sugars k3 d10 k3, PS)
target mRNA inhibition (SK-MEL-28, 4 µM): 39%

AAGTAACTGACACGCA (sugars k3 d10 k3, PS)
target mRNA inhibition (SK-MEL-28, 4 µM): 23%

AAGTACTTGGACAGAA (sugars k3 d10 k3, PS)
target mRNA inhibition (SK-MEL-28, 4 µM): 54%

AAGTCATTGCTCTTGT (sugars k3 d10 k3, PS)
target mRNA inhibition (SK-MEL-28, 4 µM): 28%

AAGTGTCTAAAGTCCC (sugars kkddddddddddkeke, PS)
target mRNA inhibition (MM.1R, 1 µM): 10% and 12%

AAGTTCATGTAAAGTC (sugars kddddddddddkekek, PS)
target mRNA inhibition (MM.1R, 1 µM): 14% and 6%

AAGTTCATGTAAAGTC (sugars kkddddddddddkeke, PS)
target mRNA inhibition (MM.1R, 1 µM): 28% and 20%

AAGTTCTAGTCGCGCA (sugars k3 d10 k3, PS)
target mRNA inhibition (MM.1R, 1 µM): 11%

AATAAGCAGAAACAGC (sugars k4 d8 k4, PS)
target mRNA inhibition (SK-MEL-28, 4 µM): 39%

AATCAGAATGGCGAGT (sugars k3 d10 k3, PS)
target mRNA inhibition (SK-MEL-28, 4 µM): 39%

AATGGATAGTTTCTCA (sugars k3 d10 k3, PS)
target mRNA inhibition (MM.1R, 0.0625 µM): -2% and -14%
target mRNA inhibition (MM.1R, 0.074 µM): 11%
target mRNA inhibition (MM.1R, 0.222 µM): 8%
target mRNA inhibition (MM.1R, 0.25 µM): 6% and 5%
target mRNA inhibition (MM.1R, 0.666 µM): 23%
target mRNA inhibition (MM.1R, 1 µM): 21% and 36%
target mRNA inhibition (MM.1R, 2 µM): 45%
target mRNA inhibition (MM.1R, 4 µM): 45% and 50%
target mRNA inhibition (SK-MEL-28, 4 µM): 63%

AATGGCGGATAGATCT (sugars k3 d10 k3, PS)
target mRNA inhibition (MM.1R, 1 µM): 10% and 25%

AATGTAAGTGATAGGT (sugars k3 d10 k3, PS)
target mRNA inhibition (SK-MEL-28, 4 µM): 80%

AATGTGTATTACTCTT (sugars kkdddddddddkekek, PS)
target mRNA inhibition (MM.1R, 1 µM): 52% and 41%

AATTCCTCCACTACCA (sugars k3 d10 k3, PS)
target mRNA inhibition (MM.1R, 1 µM): -41%

AATTCTCCTATGCTGA (sugars k3 d10 k3, PS)
target mRNA inhibition (SK-MEL-28, 4 µM): 13%

ACAAAATGGTGTGTAA (sugars k3 d10 k3, PS)
target mRNA inhibition (SK-MEL-28, 4 µM): 7%

ACAAGAACTGCTGTGT (sugars k3 d10 k3, PS)
target mRNA inhibition (SK-MEL-28, 4 µM): 7%

ACAAGTGCTAGGATTC (sugars k3 d10 k3, PS)
target mRNA inhibition (SK-MEL-28, 4 µM): 67%

ACACACATTAAAGGGT (sugars k3 d10 k3, PS)
target mRNA inhibition (SK-MEL-28, 4 µM): 43%

ACACACATTTGAGAGC (sugars k3 d10 k3, PS)
target mRNA inhibition (SK-MEL-28, 4 µM): 66%

ACACAGTCTGCTGCCC (sugars k3 d10 k3, PS)
target mRNA inhibition (SK-MEL-28, 4 µM): 51%

ACACATCACTTGGTCA (sugars k3 d10 k3, PS)
target mRNA inhibition (SK-MEL-28, 4 µM): 78%

ACACGCCCGACCCTCC (sugars k3 d10 k3, PS)
target mRNA inhibition (MM.1R, 1 µM): 4%

ACACTGGATCTGAATT (sugars k3 d10 k3, PS)
target mRNA inhibition (SK-MEL-28, 4 µM): 46%

ACACTTTTAGAGAGGA (sugars k3 d10 k3, PS)
target mRNA inhibition (MM.1R, 0.0625 µM): 32%
target mRNA inhibition (MM.1R, 0.222 µM): 25% and 41%
target mRNA inhibition (MM.1R, 0.25 µM): 41%
target mRNA inhibition (MM.1R, 2 µM): 72% and 89%
target mRNA inhibition (MM.1R, 4 µM): 74%
target mRNA inhibition (SK-MEL-28, 4 µM): 63%

ACACTTTTAGAGAGGA (sugars kkdddddddddkdkdk, PS)
target mRNA inhibition (MM.1R, 1 µM): 3%

ACACTTTTAGAGAGGA (sugars kkdddddddddkekek, PS)
target mRNA inhibition (MM.1R, 1 µM): 27%

ACAGAAGATCTCTACT (sugars k3 d10 k3, PS)
target mRNA inhibition (SK-MEL-28, 4 µM): 32%

ACAGAGACGCGGTGAG (sugars k3 d10 k3, PS)
target mRNA inhibition (MM.1R, 1 µM): 14%

ACAGATAACGAGGTGC (sugars k3 d10 k3, PS)
target mRNA inhibition (SK-MEL-28, 4 µM): 30%

ACAGATAGTTAAGTAC (sugars k3 d10 k3, PS)
target mRNA inhibition (SK-MEL-28, 4 µM): 35%

ACAGCATAGCATTATC (sugars k3 d10 k3, PS)
target mRNA inhibition (SK-MEL-28, 4 µM): 64%

ACAGGACCTGGTCCAG (sugars k3 d10 k3, PS)
target mRNA inhibition (SK-MEL-28, 4 µM): 35%

ACAGGGTGCTCCTGAG (sugars k3 d10 k3, PS)
target mRNA inhibition (SK-MEL-28, 4 µM): 23%

ACAGTGACTTGCATCC (sugars k2 d9 e3 k2, PS)
target mRNA inhibition (MM.1R, 1 µM): 27%

ACAGTGACTTGCATCC (sugars k3 d10 k3, PS)
target mRNA inhibition (MM.1R, 1 µM): 34%

ACAGTGACTTGCATCC (sugars kddddddddddkekek, PS)
target mRNA inhibition (MM.1R, 1 µM): -5%

ACAGTGACTTGCATCC (sugars kdddddddddkekeke, PS)
target mRNA inhibition (MM.1R, 1 µM): 6%

ACATATCCATGTTGCA (sugars k3 d10 k3, PS)
target mRNA inhibition (SK-MEL-28, 4 µM): 79%

ACATGGCAGTGGAGCT (sugars k3 d10 k3, PS)
target mRNA inhibition (SK-MEL-28, 4 µM): 64%

ACATTACTGAGATATC (sugars k3 d10 k3, PS)
target mRNA inhibition (SK-MEL-28, 4 µM): 16%

ACCAAAAGTACCACAG (sugars k3 d10 k3, PS)
target mRNA inhibition (MM.1R, 1 µM): -8%

ACCAGAACTAATGTCC (sugars k3 d10 k3, PS)
target mRNA inhibition (SK-MEL-28, 4 µM): 32%

ACCCACACAAGTCTTA (sugars k3 d10 k3, PS)
target mRNA inhibition (SK-MEL-28, 4 µM): -4%

ACCCACGGACGGAGGC (sugars k3 d10 k3, PS)
target mRNA inhibition (SK-MEL-28, 4 µM): -9%

ACCGCATTGCTAGATT (sugars k3 d10 k3, PS)
target mRNA inhibition (MM.1R, 1 µM): 27%

ACCTAACTAAATGTCA (sugars k3 d10 k3, PS)
target mRNA inhibition (MM.1R, 1 µM): -24%

ACCTACAAGCAGTCAT (sugars k3 d10 k3, PS)
target mRNA inhibition (SK-MEL-28, 4 µM): 46%

ACCTGCTGGCAGTTCT (sugars k3 d10 k3, PS)
target mRNA inhibition (SK-MEL-28, 4 µM): 61%

ACCTTCGCGGCCGGCC (sugars k3 d10 k3, PS)
target mRNA inhibition (MM.1R, 1 µM): -42%

ACCTTTTTTGGCTCCC (sugars k4 d8 k4, PS)
target mRNA inhibition (SK-MEL-28, 4 µM): 19%

ACGAAGGGCAGTGCCT (sugars k3 d10 k3, PS)
target mRNA inhibition (MM.1R, 1 µM): -5%

ACGACAGCATAGCATT (sugars k3 d10 k3, PS)
target mRNA inhibition (SK-MEL-28, 4 µM): 67%

ACGCAAGTCTGAATTT (sugars k3 d10 k3, PS)
target mRNA inhibition (SK-MEL-28, 4 µM): 65%

ACGCACACACAAGTGG (sugars k3 d10 k3, PS)
target mRNA inhibition (SK-MEL-28, 4 µM): 59%

ACGGAAGTTTACACTG (sugars kddddddddddkekek, PS)
target mRNA inhibition (MM.1R, 1 µM): 7%

ACGGAAGTTTACACTG (sugars kkdddddddddkekek, PS)
target mRNA inhibition (MM.1R, 1 µM): 21%

ACGGAGGCGGCAGACG (sugars k3 d10 k3, PS)
target mRNA inhibition (MM.1R, 1 µM): -9%

ACGTGTGCTTGCCAAG (sugars kdddddddddkekeke, PS)
target mRNA inhibition (MM.1R, 1 µM): 40% and 35%

ACGTGTGCTTGCCAAG (sugars kkdddddddddkdkdk, PS)
target mRNA inhibition (MM.1R, 0.0625 µM): 15%
target mRNA inhibition (MM.1R, 0.25 µM): 43%
target mRNA inhibition (MM.1R, 1 µM): 75% and 66% and 56%
target mRNA inhibition (MM.1R, 4 µM): 77%

ACTAACAGGGAGACTG (sugars k3 d10 k3, PS)
target mRNA inhibition (MM.1R, 1 µM): -19%

ACTAAGCTTGATAAAG (sugars k3 d10 k3, PS)
target mRNA inhibition (MM.1R, 1 µM): 14% and 5%
